In patent US6265413A, “Camptothecin compounds and a method of preparation thereof” (priority 1995, dated 2001):
Entries after “also recorded” stand apart in the source; their conditions may differ. Read-outs that look alike come from different tables or passages of the source.

Key:
[1] = tested on: L1210 leukemia; assay: Prolongation effects of life span against L1210-bearing mice; type: in vivo, BDF1 mice; details: for 30 days survivor / ILS(%) / Survival days MST / B.W. Change: i.p., days 1, 3, 5; for B.W. Change: day 1 to day 5
Description: Antitumor activities were measured through the experiments on prolongation effects of life span against L1210-bearing mice and tumor growth inhibitory effects against B16-bearing mice. To evaluate the antitumor activities on L1210 leukemia, a certain number of L1210 cells (in vitro) was intraperitoneally inoculated for propagation and the L1210 cells in ascites were harvested from animals sacrificed by cervical dislocation on 7th day after tumor was implanted.
(§1) Male BDF1 mice, weighing about 20 grams, were used. Animal rooms were controlled at 23±2° C. and 60±5% relative humidity, under HEPA filter, and maintained in specific pathogen free (SPF).
5×10^5 of L1210 leukemia cell, obtained in vitro form, were intraperitoneally inoculated in BDF1 mice for propagation. The L1210 tumor cells in ascites were aseptically harvested from BDF1 mice sacrificed by cervical dislocation on 7th day after tumor implantation.
The tumor cells were passaged at least three times prior to use in the test.
5×10^5 cell were intraperitoneally inoculated into BDF1 mice on day 0 and the sample ([…]) were intraperitoneally administration on days 1, 3 and 5. six mice were used for each experimental group.
Antitumor activities were evaluated by the mean survival time of a group of mice and also expressed by the ILS(%) value and the mean animal weights for day 1 and day 5.
Increased Life span (ILS)
ILS(%)={(MST of sample treated group/MST of solvent group)-1}×100

[2] = background art; cited from earlier work
[3] = tested on: B16 melanoma; type: in vivo, BDF1 mice; details: for IR (%) on tumor size / IR (%) on tumor weight / Tumor weight day 20 / Tumor size day 8 / Tumor size day 12 / Tumor size day 16 / Tumor size day 20: days 8, 12, 16; for IR (%) on tumor size / IR (%) on tumor weight: day 20; for Tumor weight day 20: in g (unit assumed); for Tumor size day 8 / Tumor size day 12 / Tumor size day 16 / Tumor size day 20: in mm³ (unit assumed)
Description: To investigate tumor growth inhibitory effects against B16 melanoma, a certain number of B16 cells(in vitro) was subcutaneously inoculated for propagation and tumor cells were resected from animals scrificed by cervical dislocation on 14th day after tumor was implanted.
as §1
10^6 of B16 melanoma cell, obtained in vitro form, were subcutaneously in BDF1 mice for propagation. The B16 melanomas were transfered on day 14. The fresh tumors except for necrotized center were aseptically resected from tumor-bearing mice sacrificed by cervical dislocation.
The tumor cells were passaged at least […] three times prior to use in the test.
1 g subcutaneously donor tumor to be subcutaneously was homogenized in cold sterilized saline to give a final concentration of 1 g/10 ml. The 1:10 tumor suspension is injected into all BDF1 mice subcutaneously using 0.2 ml/mouse.
The mice were subcutaneously implanted with such homogenized solution and 7 to 8th day after the tumor implantation, the mice having a certain size of tumors were selected for experiments. Each experimental group were administered with the sample (0.1 ml/10 g) on 8th, 12th and 16th day after the inoculation of tumor. Eight mice were used for each experimental group.
The size of the tumors was calculated by direct measurement of the diameter of the tumors, using the formula.
Where b is the largest diameter and a is the diameter perpendicular to b and growth curves were thus obtained. (FIG. 2)
The inhibition rate of tumor growth on the basis of tumor size was calculated according to the formula.
TWt is the mean tumor volume(weight) of sample-treated groups.
TWc is the mean tumor volume(weight) of control group.

[4] = tested on: topoisomerase I; details: background art; cited from earlier work

In the case of `CCC1(O)C(=O)OCc2c1cc1n(c2=O)Cc2c-1nc1ccccc1c2CCN(Cc1ccccc1)C(=O)OCc1ccccc1` (racemic) [Example 18, dl-7-[2-(N-benzyl-N-carbobenzyloxyamino)ethyl]camptothecin], the 30 days survivor ([1]; total dose 10 mg/kg) is reported as 0/6, the “ILS(%)” value ([1]; total dose 10 mg/kg) is reported as 33% and the “Survival days MST” value ([1]; total dose 10 mg/kg) is reported as 13.00 days. For the same compound, the “B.W. Change” value ([1]; total dose 10 mg/kg) was -0.25 g, the 30 days survivor ([1]; total dose 50 mg/kg) was 0/6 and the “ILS(%)” value ([1]; total dose 50 mg/kg) was 64%. The “Survival days MST” value ([1]; total dose 50 mg/kg) was 16.00 days and the “B.W. Change” value ([1]; total dose 50 mg/kg) was -0.80 g.
For `CCc1c2c(nc3ccc(OC(=O)N4CCC(N5CCCCC5)CC4)cc13)-c1cc3c(c(=O)n1C2)COC(=O)[C@]3(O)CC` [CPT-11], the “antineoplastic activity in clinical trial / treatment” value [2] is listed as “excellent antineoplastic activities”.
For `CCC1(O)C(=O)OCc2c1cc1n(c2=O)Cc2c-1nc1ccccc1c2CCNCc1ccccc1` (racemic) [Example 26, dl-7-[2-(N-benzylamino)ethyl]camptothecin], the 30 days survivor ([1]; total dose 10 mg/kg) was 0/6, the “ILS(%)” value ([1]; total dose 10 mg/kg) was 72% and the “Survival days MST” value ([1]; total dose 10 mg/kg) was 15.67 days. For the same compound, the “B.W. Change” value ([1]; total dose 10 mg/kg) was -0.09 g, the 30 days survivor ([1]; total dose 50 mg/kg) was 0/6 and the “ILS(%)” value ([1]; total dose 50 mg/kg) was 75%. For the same compound, the “Survival days MST” value ([1]; total dose 50 mg/kg) was 16.00 days and the “B.W. Change” value ([1]; total dose 50 mg/kg) was -0.57 g.
For `CCC1(O)C(=O)OCc2c1cc1n(c2=O)Cc2c-1nc1ccccc1c2CCNC(C)C` (racemic) [Example 30, dl-7-[2-(N-isopropylamino)ethyl]camptothecin], the “ILS(%) and dose range, comparison in words” value ([1]; compared with other compounds / camptothecin (FIG. 1)) was “better dose dependency and ILS(%) than other compound; also recorded: higher ILS(%) and wider range where the effect was siginificant”, the 30 days survivor ([1]; total dose 8.75 mg/kg) was 0/6 and the “ILS(%)” value ([1]; total dose 8.75 mg/kg) was 58.7%. For the same compound, the “Survival days MST” value ([1]; total dose 8.75 mg/kg) was 15.67 days, the “B.W. Change” value ([1]; total dose 8.75 mg/kg) was “+0.7 g” and the 30 days survivor ([1]; total dose 10 mg/kg) was 0/6. The “ILS(%)” value ([1]; total dose 10 mg/kg) was 42%, the “Survival days MST” value ([1]; total dose 10 mg/kg) was 13.00 days and the “B.W. Change” value ([1]; total dose 10 mg/kg) was -0.71 g. For the same compound, the 30 days survivor ([1]; total dose 17.5 mg/kg) was 0/6, the “Survival days MST” value ([1]; total dose 17.5 mg/kg) was 17.75 days and the “B.W. Change” value ([1]; total dose 17.5 mg/kg) was “+0.45 g”. The 30 days survivor ([1]; total dose 35 mg/kg) was 0/6, the “ILS(%)” value ([1]; total dose 35 mg/kg) was 92.4% and the “Survival days MST” value ([1]; total dose 35 mg/kg) was 19.00 days. The “B.W. Change” value ([1]; total dose 35 mg/kg) was -0.12 g, the 30 days survivor ([1]; total dose 50 mg/kg) was 0/6 and the “ILS(%)” value ([1]; total dose 50 mg/kg) was 119%. The “Survival days MST” value ([1]; total dose 50 mg/kg) was 20.00 days, the “B.W. Change” value ([1]; total dose 50 mg/kg) was -0.57 g and the 30 days survivor ([1]; total dose 70 mg/kg) was 0/6. The “ILS(%)” value ([1]; total dose 70 mg/kg) was 143%, the “Survival days MST” value ([1]; total dose 70 mg/kg) was 24.00 days and the “B.W. Change” value ([1]; total dose 70 mg/kg) was -0.79 g. For the same compound, the 30 days survivor ([1]; total dose 140 mg/kg) was 0/6, the “ILS(%)” value ([1]; total dose 140 mg/kg) was 110% and the “Survival days MST” value ([1]; total dose 140 mg/kg) was 20.75 days. For the same compound, the “B.W. Change” value ([1]; total dose 140 mg/kg) was -0.93 g, the “IR (%) on tumor size” value ([3]; 35 mg/kg) was 27% and the “IR (%) on tumor weight” value ([3]; 35 mg/kg) was 40%. The “Tumor weight day 20” value ([3]; 35 mg/kg) was 2.34 ± 0.44, the “Tumor size day 8” value ([3]; 35 mg/kg) was 86.93 ± 11.34 and the “Tumor size day 12” value ([3]; 35 mg/kg) was 411.88 ± 71.52. For the same compound, the “Tumor size day 16” value ([3]; 35 mg/kg) was 1234.65 ± 182.64, the “Tumor size day 20” value ([3]; 35 mg/kg) was 3061.34 ± 752.34 and the “IR (%) on tumor size” value ([3]; 70 mg/kg) was 54.8%. For the same compound, the “IR (%) on tumor weight” value ([3]; 70 mg/kg) was 56%, the “Tumor weight day 20” value ([3]; 70 mg/kg) was 1.71 ± 0.18 and the “Tumor size day 8” value ([3]; 70 mg/kg) was 86.21. For the same compound, the “Tumor size day 12” value ([3]; 70 mg/kg) was 320.06, the “Tumor size day 16” value ([3]; 70 mg/kg) was 870.46 and the “Tumor size day 20” value ([3]; 70 mg/kg) was 1897.88. The “IR (%) on tumor size” value ([3]; 140 mg/kg) was 67.72%, the “IR (%) on tumor weight” value ([3]; 140 mg/kg) was 71.6% and the “Tumor weight day 20” value ([3]; 140 mg/kg) was 1.11 ± 0.21. For the same compound, the “Tumor size day 8” value ([3]; 140 mg/kg) was 86.94 ± 9.34, the “Tumor size day 12” value ([3]; 140 mg/kg) was 328.98 ± 76.57 and the “Tumor size day 16” value ([3]; 140 mg/kg) was 695.75 ± 82.77. For the same compound, the “Tumor size day 20” value ([3]; 140 mg/kg) was 1353.91 ± 134.36, the “antitumor activity, comparison in words” value ([3]; ascites and solid type tumor, compared with camptothecin) was “better antitumor activity on ascites tumor and solid type tumor” and the “toxicity and safety margin, comparison in words” value ([3]; mouse, in vivo) was “less toxicity and a wide range of safety margin”.
In the case of `CC[C@@]1(O)C(=O)OCc2c1cc1n(c2=O)Cc2cc3ccccc3nc2-1` [Camptothecin, camptothecin], the “toxicity in clinical trial” value [2] is listed as “severe toxicity”, the “mode of action on topoisomerase I” value [4] is listed as “specific mode of action to inhibit topoisomerase I; also recorded: binds covalently with topoisomerase I” and the “IR (%) on tumor size” value ([3]; 10 mg/kg) is listed as 57.8%. The “IR (%) on tumor weight” value ([3]; 10 mg/kg) was 59%, the “Tumor weight day 20” value ([3]; 10 mg/kg) was 1.61 ± 0.30 and the “Tumor size day 8” value ([3]; 10 mg/kg) was 85.95 ± 13.15. For the same compound, the “Tumor size day 12” value ([3]; 10 mg/kg) was 458.56 ± 53.87, the “Tumor size day 16” value ([3]; 10 mg/kg) was 1035.98 ± 129.36 and the “Tumor size day 20” value ([3]; 10 mg/kg) was 1775.50 ± 300.91.
